According to patent US20160264616A1, “THERAPEUTIC COMPOUNDS AND METHODS” (priority 2015, published 2016):
Entries after “also recorded” stand apart in the source; their conditions may differ. Read-outs that look alike come from different tables or passages of the source.

Key:
[1] = Solubility in aqueous ITC buffer
RGS17 [2] = target: T1, RGS17 (Homo sapiens, UniProt Q9UGC6); assay: Isothermal titration calorimetry (ITC); format: binding; details: for Gibbs free energy of binding / binding enthalpy ΔH / entropic component TΔS / Kd: ITC; for Kd: 25 C, read-out: dissociation constant (Kd)
T1 construct: This is the same RGS17 construct used in the high throughput screening campaign that is fully active despite the N-terminal truncation; made in house
T1 sequence (Q9UGC6 84-200 limits assumed): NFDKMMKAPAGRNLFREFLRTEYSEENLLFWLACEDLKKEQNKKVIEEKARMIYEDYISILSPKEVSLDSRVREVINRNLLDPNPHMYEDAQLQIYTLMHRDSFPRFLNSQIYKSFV
Protocol: ITC was used to determine the binding properties of the lead compounds in solution by determining the dissociation constant (Kd) and stoichiometry (n) of the interaction between RGS17 and the inhibitor compounds.
RGS17 was concentrated in ITC sample buffer (50 mM HEPES pH 7.5, 100 mM NaCl and 1 mM beta-mercaptoethanol) at 50 μM. […] DMSO concentration in both compound and RGS17 sample was 1%, to account for any DMSO effects. Total injections for UI-1956 were set to 5 μL with a duration time of 10 secs and spacing of 240 secs and for UI-5 were set to 12 μL with a duration time of 24 secs and spacing of 240 secs. The total amount of injections for UI-1956 and UI-5 were, 32 and 23 respectively. All experiments were conducted on a GE MicroCal VP-ITC System (General Electric; Piscataway, N.J.) at 25 C. Heats of dilution were determined by averaging the heat evolved by the last five injections and subtracted from the raw data. The values for affinity, stoichiometry and change in enthalpy were then determined using the ORIGIN software provided by the manufacturer.

[3] = target: T2, Gαo:RGS17 protein:protein interaction (Homo sapiens, UniProt Q9UGC6); assay: AlphaScreen Gαo:RGS17 protein:protein interaction assay (HTS and dose-response); format: binding; details: for inhibition of the interaction of RGS17 with Gαo: AlphaScreen dose-response, n=3 in triplicate; for inhibition at 100 µM: read-out: inhibition of the AlphaScreen assay
T2 construct: This is the same RGS17 construct used in the high throughput screening campaign that is fully active despite the N-terminal truncation; made in house; host or cells: BL21 (DE3) E. coli for Gαo
T2 sequence (Q9UGC6 84-200 limits assumed): T1 sequence (Q9UGC6 84-200 limits assumed)
Protocol: The primary biochemical screen was designed to identify compounds that function as inhibitors of the Gαo:RGS17 ppi. This was accomplished by miniaturizing our previously published HTS paradigm in a 1536-well format (17). […] We interrogated the 2320 compound containing MicroSource […] Diversity library (Discovery Systems, Inc. Gaylordsville, Conn.) (FIG. 3).
In total, 2,320 compounds from the MicroSource […] chemical library were screened at a concentration of 40 μM. Two 1536-well plates containing 1,280 compounds and 128 wells of DMSO controls were used. RGS17-anti-GST and Gαo-biotin-streptavidin beads were prepared as previously described. In brief, 100 μg (20 μL) of beads were coupled to 20 ng (10 nM) of each binding partner (Gαo:RGS17) and incubated for 30 min on ice. Then, 4.5 μL of RGS17-anti-GST beads were added using a FlexDrop IV (PerkinElmer, Waltham, Mass.) and incubated for 10 min with compound while the Gαo-biotin-streptavidin beads were incubated with AMF. After incubation, 4.5 μL of the Gαo-biotin-streptavidin bead/protein mixture was added to compound containing wells and incubated on ice for 1.25 hours and read at room temperature using the EnVision plate reader with monochromators.
Experiments were carried out similarly to the high-throughput AlphaScreen assay except this was completed using Corning 384-well white flat bottom plates and the final total volume was 60 μL, with 20 µL of Gαo-biotin-streptavidin and RGS17-anti-GST beads at a final concentration of 10 nM. Then, 20 μL of compounds in a half log dilution series to yield a final range from 1 nM to 100 μM was added to RGS17-anti-GST beads and incubated for 10 min in the dark on ice. Next, 20 μL of Gαo-biotin-streptavidin beads were then added in the presence of AMF and GDP. Negative controls were determined in the absence of AMF and compound. Maximum binding was determined in the absence of compounds but in the presence of AMF and GDP.

RGS17 [4] = target: T1, RGS17; assay: Differential scanning fluorimetry (DSF) with RGS17; format: binding; details: 50 μM compound; for effect on RGS17 thermal stability (DSF): versus DMSO
Protocol: Further evaluation of the compounds designated UI-5, UI-1590, UI-1907 and UI-1956 was conducted using Differential Scanning Fluorimetry (DSF). This method allows for the rapid measurement of protein stability based on the melting temperature (Tm) of the target protein that is bound by ligand. A shift of Tm indicates a change in protein stability to melting due to stabilization added by the small molecule binding to the target protein. The four compounds were incubated at 50 μM with RGS17 or Gαo in the presence of Sypro Orange. In aqueous solution the fluorescence emission from the dye is very weak. However, when the dye binds to hydrophobic regions of a protein a significant increase in florescence intensity is observed intensity (20). The hydrophobic parts of a native, fully folded, protein in solution are generally buried within the protein and therefore not accessible to the dye resulting in little fluorescence emission. When the protein unfolds the dye molecules can bind to the exposed hydrophobic regions of the proteins, resulting in increased fluorescence. […] UI-5, UI-1590 and UI-1956 shifted RGS17's Tm by 2.1° C., 1.4° C. and 1.0° C., respectively (FIG. 4B). These three compounds were further characterized for activity against RGS17.
Differential scanning fluorimetry experiments were carried out using white 384-well μltraAMP PCR plates (Sorenson BioSciences; Salt Lake City, Utah). All experiments were carried out as previously described by Phillips and Hernandez de la Pena.(55) In brief, a 1:2000 dilution of Sypro Orange was made by adding 1 μL of Sypro Orange to 2 mL of PBS at pH 7.5. First, 1.2 mg/mL protein was incubated with 50 μM of each compound at room temperature for 15 min in a 10 μL volume. Upon completion of the incubation, 110 μL of the Sypro Orange-PBS solution was added to each compound/protein mixture. This yielded a final volume of 120 μL containing 0.1 mg/mL protein. Finally, 20 μL of the Sypro Orange/compound/protein mix for each compound and RGS17 or Gαo proteins was added to four wells of the 384-well plate. The experiment was run on the Roche LightCycler 480 (Roche, Switzerland) using a two-step method. Starting with a 25° C. baseline step and a second step with a target temperature of 95° C. with continuous acquisition and set acquisition rate of 3 per ° C. All data was collected using the Roche LightCycler data acquisition ability and analyzed with Graphpad Prism 6.0, using first and second derivatives of the fluorescent melting curves.

| SMILES | solubility at the high concentration needed for ITC [1] | dissociation constants as determined by isothermal titration calorimetry (summary) (RGS17 [2]) | Gibbs free energy of binding (RGS17 [2]) | binding enthalpy ΔH (RGS17 [2]) | entropic component TΔS (RGS17 [2]) | Kd (RGS17 [2]) | inhibition of the interaction of RGS17 with Gαo [3] | inhibition at 100 µM [3] | shift of RGS17 Tm (RGS17 [4]) | effect on RGS17 thermal stability (DSF) (RGS17 [4]) | inhibition at 100 µM ([3]; 100 μM compound, from dose-response experiments) |
| --- | --- | --- | --- | --- | --- | --- | --- | --- | --- | --- | --- |
| C[n+]1cc2c3c(ccc2c2ccc4cc5c(cc4c21)OCO5)OCO3 [UI-5] | soluble in the aqueous buffer | low μM to nM | -8.168 kcal/mol | -0.148 kcal/mol | 8.0202 kcal/mol | 1020 nM | dose dependent manner | > 25% | 2.1 °C | stabilize RGS17 against thermal denaturing |  |
| CC1=C(O)C(=O)C=C2C1=CC=C1[C@@]2(C)CC[C@@]2(C)[C@@H]3C[C@](C)(C(=O)O)CC[C@]3(C)CC[C@]12C [UI-1590] | not soluble at the high concentration required; also recorded: not amendable to ITC due to solubility issues | low μM to nM |  |  |  |  | dose dependent manner | > 25% | 1.4 °C | stabilize RGS17 against thermal denaturing |  |
| CC(C)=CCC[C@]1(C)C=Cc2c(O)c3c(c(CC=C(C)C)c2O1)O[C@]12C(=C[C@@H]4C[C@H]1C(C)(C)O[C@@]2(C/C=C(/C)C(=O)O)C4=O)C3=O [UI-1907] |  |  |  |  |  |  | dose dependent manner | > 25% |  | alter the thermal stability of both RGS17 and Gαo; also recorded: bind both the RGS and G protein subunit in a non-specific manner |  |
| O=c1c(-c2cc(O)c(O)c(O)c2)coc2cc(O)c(O)c(O)c12 [UI-1956, 5,6,7-trihydroxy-3-(3,4,5-trihydroxyphenyl)-4H-chromen-4-one] | soluble in the aqueous buffer | low μM to nM | -8.389 kcal/mol | -2.158 kcal/mol | 6.2313 kcal/mol | 714 nM | dose dependent manner |  | 1.0 °C | stabilize RGS17 against thermal denaturing | > 25% |
